# According to US12077503B2, “Substituted cyclic amides and their use as herbicides” (FMC CORPORATION, priority 2015, dated 2024):
# Legend:
# Format in all cases: in vivo
# [1] = system: redroot pigweed (Amaranthus retroflexus); test: Test G Post-Emergence Protocol; conditions: Amaranthus retroflexus, post-emergence, 312 h; for pest or weed control at 15.625 g/ha: 15.625 g ai/ha, evaluated after 13 days (100=total damage to plant; 0=no damage to plant), read-out: Pigweed, Redroot damage rating; for pest or weed control at 62.5 g/ha: 62.5 g ai/ha, read-out: Pigweed, Redroot damage rating (100=total damage to plant; 0=no damage to plant); for pest or weed control at 62.5 g/ha / pest or weed control at 250 g/ha: evaluated after 13 days; for pest or weed control at 250 g/ha: 250 g ai/ha, read-out: damage to plant, Pigweed, Redroot (100=total damage to plant; 0=no damage to plant)
# Experimental: (§1) Seeds of corn (Zea mays), giant foxtail (Setaria faberi), barnyardgrass (Echinochloa crus-galli), ivy-leaved morning glory (Ipomoea hederacea), redroot pigweed (Amaranthus retroflexus) and velvetleaf (Abutilon theophrasti) were sown in standard soil in pots. After cultivation for 8 days under controlled conditions in a glasshouse (at 24/16° C., day/night; 14 hours light; 65% humidity), the plants were sprayed with an aqueous spray solution derived from the formulation of the technical active ingredient in acetone/water (50:50) solution containing 0.5% Tween 20 (polyoxyethylene sorbitan monolaurate, CAS RN 9005-64-5) to give a final dose of 15.625, 62.5 or 250 g/ha of test compound.
# (§2) The test plants were then grown on under controlled conditions in a glasshouse (at 24/16° C., day/night; 14 hours light; 65% humidity) and watered twice daily. After 13 days the test was evaluated (100=total damage to plant; 0=no damage to plant). A dash (-) means no test result.
# [2] = system: barnyardgrass (Echinochloa crus-galli); test: Test G Post-Emergence Protocol; conditions: Echinochloa crus-galli, post-emergence, 312 h; for pest or weed control at 15.625 g/ha: 15.625 g ai/ha, evaluated after 13 days (100=total damage to plant; 0=no damage to plant), read-out: Barnyardgrass damage rating; for pest or weed control at 62.5 g/ha: 62.5 g ai/ha, read-out: Barnyardgrass damage rating (100=total damage to plant; 0=no damage to plant); for pest or weed control at 62.5 g/ha / pest or weed control at 250 g/ha: evaluated after 13 days; for pest or weed control at 250 g/ha: 250 g ai/ha, read-out: damage to plant, Barnyardgrass (100=total damage to plant; 0=no damage to plant)
# Experimental: as §1, §2
# [3] = system: corn (Zea mays); test: Test G Post-Emergence Protocol; conditions: Zea mays, post-emergence, 312 h; for plant injury at 15.625 g/ha: 15.625 g ai/ha, evaluated after 13 days (100=total damage to plant; 0=no damage to plant), read-out: Corn damage rating; for plant injury at 62.5 g/ha: 62.5 g ai/ha, read-out: Corn damage rating (100=total damage to plant; 0=no damage to plant); for plant injury at 62.5 g/ha / plant injury at 250 g/ha: evaluated after 13 days; for plant injury at 250 g/ha: 250 g ai/ha, read-out: damage to plant, Corn (100=total damage to plant; 0=no damage to plant)
# Experimental: as §1, §2
# [4] = system: velvetleaf (Abutilon theophrasti); test: Test G Post-Emergence Protocol; conditions: Abutilon theophrasti, post-emergence, 312 h; for pest or weed control at 15.625 g/ha: 15.625 g ai/ha, evaluated after 13 days (100=total damage to plant; 0=no damage to plant), read-out: Velvetleaf damage rating; for pest or weed control at 62.5 g/ha: 62.5 g ai/ha, read-out: Velvetleaf damage rating (100=total damage to plant; 0=no damage to plant); for pest or weed control at 62.5 g/ha / pest or weed control at 250 g/ha: evaluated after 13 days; for pest or weed control at 250 g/ha: 250 g ai/ha, read-out: damage to plant, Velvetleaf (100=total damage to plant; 0=no damage to plant)
# Experimental: as §1, §2
# [5] = system: giant foxtail (Setaria faberi); test: Test G Post-Emergence Protocol; conditions: Setaria faberi, post-emergence, 312 h; for pest or weed control at 15.625 g/ha: 15.625 g ai/ha, evaluated after 13 days (100=total damage to plant; 0=no damage to plant), read-out: Foxtail, Giant damage rating; for pest or weed control at 62.5 g/ha: 62.5 g ai/ha, read-out: Foxtail, Giant damage rating (100=total damage to plant; 0=no damage to plant); for pest or weed control at 62.5 g/ha / pest or weed control at 250 g/ha: evaluated after 13 days; for pest or weed control at 250 g/ha: 250 g ai/ha, read-out: damage to plant, Foxtail, Giant (100=total damage to plant; 0=no damage to plant)
# Experimental: as §1, §2
# [6] = system: ivy-leaved morning glory (Ipomoea hederacea); test: Test G Post-Emergence Protocol; conditions: Ipomoea, post-emergence, 312 h; for pest or weed control at 15.625 g/ha: 15.625 g ai/ha, evaluated after 13 days (100=total damage to plant; 0=no damage to plant), read-out: Morningglory, Ivy-leaved damage rating; for pest or weed control at 62.5 g/ha: 62.5 g ai/ha, read-out: Morningglory, Ivy-leaved damage rating (100=total damage to plant; 0=no damage to plant); for pest or weed control at 62.5 g/ha / pest or weed control at 250 g/ha: evaluated after 13 days; for pest or weed control at 250 g/ha: 250 g ai/ha, read-out: damage to plant, Morningglory, Ivy-leaved (100=total damage to plant; 0=no damage to plant)
# Experimental: as §1, §2
# [7] = system: redroot pigweed (Amaranthus retroflexus); test: Test G Pre-Emergence Protocol; conditions: Amaranthus retroflexus, pre-emergence, 312 h, evaluated after 13 days; for pest or weed control at 15.625 g/ha: 15.625 g ai/ha; for pest or weed control at 15.625 g/ha / pest or weed control at 250 g/ha: read-out: Pigweed, Redroot damage rating (100=total damage to plant; 0=no damage to plant); for pest or weed control at 62.5 g/ha: 62.5 g ai/ha, 100=total damage to plant, 0=no damage to plant, read-out: plant damage rating, Pigweed, Redroot; for pest or weed control at 250 g/ha: 250 g ai/ha
# Experimental: as §1, with “one day” for “8 days”
# as §2
# [8] = system: barnyardgrass (Echinochloa crus-galli); test: Test G Pre-Emergence Protocol; conditions: Echinochloa crus-galli, pre-emergence, 312 h, evaluated after 13 days; for pest or weed control at 15.625 g/ha: 15.625 g ai/ha, read-out: Barnyard grass damage rating (100=total damage to plant; 0=no damage to plant); for pest or weed control at 62.5 g/ha: 62.5 g ai/ha, 100=total damage to plant, 0=no damage to plant, read-out: plant damage rating, Barnyardgrass; for pest or weed control at 250 g/ha: 250 g ai/ha, read-out: Barnyardgrass damage rating (100=total damage to plant; 0=no damage to plant)
# Experimental: as §1, with “one day” for “8 days”
# as §2
# [9] = system: corn (Zea mays); test: Test G Pre-Emergence Protocol; conditions: Zea mays, pre-emergence, 312 h, evaluated after 13 days; for plant injury at 15.625 g/ha: 15.625 g ai/ha; for plant injury at 15.625 g/ha / plant injury at 250 g/ha: read-out: Corn damage rating (100=total damage to plant; 0=no damage to plant); for plant injury at 62.5 g/ha: 62.5 g ai/ha, 100=total damage to plant, 0=no damage to plant, read-out: plant damage rating, Corn; for plant injury at 250 g/ha: 250 g ai/ha
# Experimental: as §1, with “one day” for “8 days”
# as §2
# [10] = system: velvetleaf (Abutilon theophrasti); test: Test G Pre-Emergence Protocol; conditions: Abutilon theophrasti, pre-emergence, 312 h, evaluated after 13 days; for pest or weed control at 15.625 g/ha: 15.625 g ai/ha; for pest or weed control at 15.625 g/ha / pest or weed control at 250 g/ha: read-out: Velvetleaf damage rating (100=total damage to plant; 0=no damage to plant); for pest or weed control at 62.5 g/ha: 62.5 g ai/ha, 100=total damage to plant, 0=no damage to plant, read-out: plant damage rating, Velvetleaf; for pest or weed control at 250 g/ha: 250 g ai/ha
# Experimental: as §1, with “one day” for “8 days”
# as §2
# [11] = system: giant foxtail (Setaria faberi); test: Test G Pre-Emergence Protocol; conditions: Setaria faberi, pre-emergence, 312 h, evaluated after 13 days; for pest or weed control at 15.625 g/ha: 15.625 g ai/ha; for pest or weed control at 15.625 g/ha / pest or weed control at 250 g/ha: read-out: Foxtail, Giant damage rating (100=total damage to plant; 0=no damage to plant); for pest or weed control at 62.5 g/ha: 62.5 g ai/ha, 100=total damage to plant, 0=no damage to plant, read-out: plant damage rating, Foxtail, Giant; for pest or weed control at 250 g/ha: 250 g ai/ha
# Experimental: as §1, with “one day” for “8 days”
# as §2
# [12] = system: ivy-leaved morning glory (Ipomoea hederacea); test: Test G Pre-Emergence Protocol; conditions: Ipomoea, pre-emergence, 312 h, evaluated after 13 days; for pest or weed control at 15.625 g/ha: 15.625 g ai/ha, read-out: Morning-glory, Ivy-leaved damage rating (100=total damage to plant; 0=no damage to plant); for pest or weed control at 62.5 g/ha: 62.5 g ai/ha, 100=total damage to plant, 0=no damage to plant, read-out: plant damage rating, Morningglory, Ivy-leaved; for pest or weed control at 250 g/ha: 250 g ai/ha, read-out: Morningglory, Ivy-leaved damage rating (100=total damage to plant; 0=no damage to plant)
# Experimental: as §1, with “one day” for “8 days”
# as §2
structure (smiles),measurement,setting,value
C[C@@]1(C(=O)Nc2cccc(F)c2F)C(=O)NC[C@@H]1c1ccc(C(F)(F)F)cc1 (racemic) [Compound 1405],pest or weed control at 15.625 g/ha,[1],0%
same,pest or weed control at 62.5 g/ha,[1],0%
same,pest or weed control at 250 g/ha,[1],0%
same,pest or weed control at 15.625 g/ha,[2],0%
same,pest or weed control at 62.5 g/ha,[2],0%
same,pest or weed control at 250 g/ha,[2],0%
same,plant injury at 15.625 g/ha,[3],0%
same,plant injury at 62.5 g/ha,[3],0%
same,plant injury at 250 g/ha,[3],0%
same,pest or weed control at 15.625 g/ha,[4],0%
same,pest or weed control at 62.5 g/ha,[4],0%
same,pest or weed control at 250 g/ha,[4],0%
same,pest or weed control at 15.625 g/ha,[5],0%
same,pest or weed control at 62.5 g/ha,[5],0%
same,pest or weed control at 250 g/ha,[5],0%
same,pest or weed control at 15.625 g/ha,[6],0%
same,pest or weed control at 62.5 g/ha,[6],0%
same,pest or weed control at 250 g/ha,[6],0%
same,pest or weed control at 15.625 g/ha,[7],0%
same,pest or weed control at 62.5 g/ha,[7],0%
same,pest or weed control at 250 g/ha,[7],0%
same,pest or weed control at 15.625 g/ha,[8],0%
same,pest or weed control at 62.5 g/ha,[8],0%
same,pest or weed control at 250 g/ha,[8],0%
same,plant injury at 15.625 g/ha,[9],0%
same,plant injury at 62.5 g/ha,[9],0%
same,plant injury at 250 g/ha,[9],0%
same,pest or weed control at 15.625 g/ha,[10],0%
same,pest or weed control at 62.5 g/ha,[10],0%
same,pest or weed control at 250 g/ha,[10],0%
same,pest or weed control at 15.625 g/ha,[11],0%
same,pest or weed control at 62.5 g/ha,[11],0%
same,pest or weed control at 250 g/ha,[11],0%
same,pest or weed control at 15.625 g/ha,[12],0%
same,pest or weed control at 62.5 g/ha,[12],0%
same,pest or weed control at 250 g/ha,[12],0%
CN1C[C@H](c2ccc(C(C)(C)C#N)cc2)[C@@H](C(=O)Nc2ccccc2F)C1=O (racemic) [Compound 1408],pest or weed control at 15.625 g/ha,[1],0%
same,pest or weed control at 62.5 g/ha,[1],0%
same,pest or weed control at 250 g/ha,[1],0%
same,pest or weed control at 15.625 g/ha,[2],0%
same,pest or weed control at 62.5 g/ha,[2],0%
same,pest or weed control at 250 g/ha,[2],40%
same,plant injury at 15.625 g/ha,[3],0%
same,plant injury at 62.5 g/ha,[3],0%
same,plant injury at 250 g/ha,[3],20%
same,pest or weed control at 15.625 g/ha,[4],0%
same,pest or weed control at 62.5 g/ha,[4],0%
same,pest or weed control at 250 g/ha,[4],10%
same,pest or weed control at 15.625 g/ha,[5],0%
same,pest or weed control at 62.5 g/ha,[5],0%
same,pest or weed control at 250 g/ha,[5],60%
same,pest or weed control at 15.625 g/ha,[6],0%
same,pest or weed control at 62.5 g/ha,[6],0%
same,pest or weed control at 250 g/ha,[6],20%
same,pest or weed control at 15.625 g/ha,[7],0%
same,pest or weed control at 62.5 g/ha,[7],0%
same,pest or weed control at 250 g/ha,[7],10%
same,pest or weed control at 15.625 g/ha,[8],0%
same,pest or weed control at 62.5 g/ha,[8],0%
same,pest or weed control at 250 g/ha,[8],20%
same,plant injury at 15.625 g/ha,[9],0%
same,plant injury at 62.5 g/ha,[9],0%
same,plant injury at 250 g/ha,[9],10%
same,pest or weed control at 15.625 g/ha,[10],0%
same,pest or weed control at 62.5 g/ha,[10],0%
same,pest or weed control at 250 g/ha,[10],0%
same,pest or weed control at 15.625 g/ha,[11],0%
same,pest or weed control at 62.5 g/ha,[11],20%
same,pest or weed control at 250 g/ha,[11],70%
same,pest or weed control at 15.625 g/ha,[12],0%
same,pest or weed control at 62.5 g/ha,[12],0%
same,pest or weed control at 250 g/ha,[12],0%
